Assay results: US6291470A, “Indole derivatives process for producing the same and medicinal uses of the same” (Toray Industries, Inc., priority 1992, dated 2001)

What was measured:
δ-opioid receptor [1] = target: T1, δ-opioid receptor (Mus musculus, UniProt P32300); assay: Change in δ-antagonist activity against DPDPE with time in mouse vas deferens (MVD); conditions: for Ratio of IC50 Values / Kb: 173 and NTI at 20 nM, 174 and 5'-NTII at 100 nM; for Kb: read-out: Ke
T1 construct: from tissue; host or cells: vas deferens of male ddy mice
Description: In this experiment, ddy male mice were used. In a Magnus' tube which is filled with Krebes-Henseleit solution (NaCl […]; KCl 4.7 mM; CaCl2 2.5 mM; KH2 PO4 1.1 mM; NaHCO3 25 mM; glucose 11 mM) kept at 37° C., and into which an atmosphere consisting of 5% carbon dioxide and 95% oxygen was flown, vas deferens taken from the animals was suspended. Electric stimulation was applied through ring-shaped platinum electrodes mounted on the upper and lower portions of the tube at a frequency of 0.1 Hz and 5.0 mS duration. The contraction of the tissue was recorded on polygraph using isometric transducer.
Then 100 nM of the test compound was added. Twenty minutes later, DPDPE was begun to be added cumulatively. The ratio of IC50 values in the presence and absence of the test compound, Ke value (the molar concentration of the test compound necessary for translating the dose-effect curve to the curve of twice dose) and pA2 value were determined. The pA2 value was determined by the method of Shild et al (Shild, H. O., Br. J. Pharmac. Chamotehr., 4, 277 (1949)). That is, the logarithm of the test compound (log[test compound]) was plotted along the abscissa and the logarithm of the value obtained by subtracting 1 from the ratio of IC50 values was plotted in the presence and absence of the test compound [log(dose ratio-1)] along the ordinate. The pA2 value was determined from the value on the abscissa when the value on the ordinate of the obtained line is 0.
Using MVD, the antagonist activities of compounds 173 and 174 against DPDPE were determined. The ratio of IC50 values, Ke values and pA2 values at 15 minutes, 30 minutes and 1 hour from the addition of the test compounds were calculated. Since the concentrations of the test compounds are different, the reciprocals of Ke values were plotted in FIGS. 1 and 2.

δ-opioid receptor [2] = conditions: Portoghese, J. Med. Chem. 33, 1547 (1990); cited from earlier work
δ-opioid receptor [3] = target: T1, δ-opioid receptor; assay: δ-opioid antagonist activity against DPDPE in mouse vas deferens (MVD); conditions: 20 min
Method in brief: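 Vas deferens from male ddy mice in Krebs-Henseleit at 37 °C (5% CO2/95% O2), field-stimulated at 0.1 Hz, 5.0 ms, isometric contraction recorded. IC50 dose ratio, Ke and Schild pA2 derived.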

[4] = system: delayed type hypersensitivity; assay: Mouse Delayed Type Hypersensitivity Reaction Suppression Test-2 (donor spleen cells, subcutaneous administration); type: in vivo; conditions: C57BL/6 spleen cells; subcutaneous everyday from day of sensitization, totally 8 days; BALB/c
Excerpt: (§1) BALB/c mice (male, 7 weeks old) were used, and each group consisted of 4-5 mice. Spleen cells (1×10^7 ) obtained from a donor mouse (C57BL/6) was subcutaneously administered to sensitize the mice. On Day 7 from the sensitization, the spleen cells (5×10^6) of the donor were subcutaneously administered on the right hing leg and spleen cells (5×10^6) obtained from a mouse of the same line as the recipient mice were subcutaneously administered on the left footpad. Twenty four hours later, the thicknesses of the right and left footpads were measured with a dial thickness gage, and the difference in thicknesses of the right and left footpads before the induction of the reaction and 24 hours after the induction of the reaction was employed as the index of the degree of the reaction.
The test compound was dissolved in 10% DMSO-water and was subcutaneously administered everyday from the day of sensitization to the day of induction of the reaction, totally 8 days. In the control group, 10% DMSO-water alone was administered in the same manner. The volume of administration was 10 ml/kg in both study groups and in the control group. Delayed Type Hypersensitivity Reaction=(thickness of right foodpad after induction-thickness of right footpad before induction)-(thickness of […] before induction) [formula]
wherein C means delayed type hypersensitivity reaction of the group to which the test compound was administered and D means the delayed type hypersensitivity reaction of the group to which vehicle was administered.

[5] = system: delayed type hypersensitivity; assay: Mouse Delayed Type Hypersensitivity Reaction Suppression Test-3 (administration into cerebral ventricles); type: in vivo
Excerpt: as §1, with “(1×10^7)” for “(1×10^7 )”, “footpad” for “hing leg”, “strain” for “line”
The test compound was dissolved in water and 5×10^-8 mol/mouse was administered into cerebral ventricles. In the control group, water alone was administered similarly. The dose was 5 μl/mouse in both the study groups and the control group.

[6] = system: delayed type hypersensitivity; assay: Delayed type hypersensitivity suppression test using mice from which adrenal glands have been removed; type: in vivo, mouse; conditions: subcutaneous, totally 8 days
Excerpt: The mechanism of immunosuppression of the compound of the present invention was examined using delayed type hypersensitivity suppression test using mice from which adrenal glands have been removed.
as §1, with “(1×10^7)” for “(1×10^7 )”, “footpad” for “hing leg”, “strain” for “line”
The adrenectomy was performed by cutting the back of each recipient mouse under anesthesia with ether before the sensitization and removing the adrenal gland. Sham operation was performed by cutting the back of each recipient mouse but not removing the adrenal gland.
The test compound was dissolved in 10% DMSO-water and was subcutaneously administered everyday from the day of sensitization to the day of induction of the reaction, totally 8 days. In the control group, 10% DMSO-water alone was administered in the same manner. The volume of administration was 10 ml/kg in both study groups and in the control groups.

contact dermatitis = assay: Mouse Contact Dermatitis Suppression Test (DNFB); type: in vivo; conditions: into cerebral ventricle 30 minutes before induction, BALB/c
Description: BALB/c mice (male, 13-15 weeks old) were used, and each group consisted of 4 mice. In mixed liquid of acetone: olive oil=4:[…] (DNFB) was dissolved. On Day 0 and Day 1, 0.1% DNFB (50μ) was sensitized to the clipped skin of the abdominal wall, so as to sensitize the mouse. On day 5, 0.15% DNFB (25 μl/ear) was challenged on closal side of each ear love of each mouse, so as to induce the reaction. The compound was administered into cerebral ventricle 30 minutes before the induction.
The contact dermatitis was detected in terms of the increase in the thicknesses of the ears. The thicknesses of the ears were measured before and 24 hours after the challenge by using a dial thickness gage. One ear was taken as n=1, and the increase in the thickness of the ear was used as an index for detecting the contact dermatitis. Contact Dermatitis=(thickness of the ear after challenge)-(thickness of the ear before challenge) [formula]
wherein E means the contact dermatitis of the group to which the compound was administered, and F means the contact dermatitis of the group to which the vehicle was administered.

T1 sequence (P32300 whole entry): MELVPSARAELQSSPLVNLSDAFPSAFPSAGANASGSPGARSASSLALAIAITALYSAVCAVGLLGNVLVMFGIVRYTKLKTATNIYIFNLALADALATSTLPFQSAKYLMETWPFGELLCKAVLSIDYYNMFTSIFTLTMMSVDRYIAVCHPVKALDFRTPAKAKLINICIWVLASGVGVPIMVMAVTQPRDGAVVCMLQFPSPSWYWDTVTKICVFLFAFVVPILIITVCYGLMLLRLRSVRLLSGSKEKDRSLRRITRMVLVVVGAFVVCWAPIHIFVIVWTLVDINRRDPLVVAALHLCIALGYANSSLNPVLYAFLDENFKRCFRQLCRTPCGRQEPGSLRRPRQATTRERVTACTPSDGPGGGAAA

Structure (SMILES) | Ratio of IC50 Values (δ-opioid receptor [1]; 15 min) | Kb (δ-opioid receptor [1]; 15 min) | change of antagonist activity with time (in words) (δ-opioid receptor [1]; 15 min to 1 hour) | Ratio of IC50 Values (δ-opioid receptor [1]; 30 min) | Kb (δ-opioid receptor [1]; 30 min) | Ratio of IC50 Values (δ-opioid receptor [1]; 60 min) | Kb (δ-opioid receptor [1]; 60 min) | antagonist activity and selectivity to δ-opioid receptor (in words) (δ-opioid receptor [2]) | Ratio of IC50 Values (δ-opioid receptor [3]; DPDPE IC50 with/without 100 nM test compound) | Kb (δ-opioid receptor [3]; against DPDPE, test compound 100 nM, read-out: Ke) | % Suppression [4] | % Suppression ([5]; 5×10^-8 mol/mouse into cerebral ventricles, BALB/c) | suppressive effect relative to NTI (in words) ([5]; into cerebral ventricles, vs NTI) | % Suppression ([6]; Adrenectomy) | % Suppression ([6]; Sham Operation) | suppression of contact dermatitis (contact dermatitis)
Oc1ccc2c3c1O[C@H]1c4[nH]c5ccc(N=C=S)cc5c4C[C@@]4(O)[C@@H](C2)N(CC2CC2)CC[C@]314 [5'-NTII, reference compound] | 3.28 | 43.9 nM | increased with time | 7.47 | 15.5 nM | 9.36 | 12 nM | antagonist activity and selectivity to δ-opioid receptor are low |  |  |  |  |  |  |  | 
Oc1ccc2c3c1O[C@H]1c4[nH]c5c6c(ccc5c4C[C@@]4(O)[C@@H](C2)N(CC2CC2)CC[C@]314)CCCC6 [Compound 2, 17-cyclopropylmethyl-3,14β-dihydroxy-4,5α-epoxy-6,7-didehydromorphinano[6,7-b]cyclohexeno[g]indole] |  |  |  |  |  |  |  |  | 22.1 | 4.74 nM | 60% | 83% | far stronger than NTI | 60% | 60% | 44%
